Experimental data taken from ChEMBL document CHEMBL1156427, “Hepatitis C virus NS5A is a direct substrate of casein kinase I-alpha, a cellular kinase identified by inhibitor affinity chromatography using specific NS5A hyperphosphorylation inhibitors” (J Biol Chem, 2007).

Tests used:
[1] = target: Ribosomal protein S6 kinase alpha-3 (Homo sapiens, UniProt P51812); test: Inhibition of human RSK2
[2] = target: Casein kinase I isoform delta (Homo sapiens, UniProt P48730); test: Inhibition of human CKIdelta
[3] = target: Casein kinase II subunit alpha (Homo sapiens, UniProt P68400); test: Inhibition of human CK2
[4] = target: Casein kinase I isoform alpha (Homo sapiens, UniProt P48729); test: Inhibition of human CKIalpha
[5] = Inhibition of human PKA
MAP kinase p38 = MAP kinase p38 (Homo sapiens, UniProt O15264+Q15759+Q16539+P53778); test: Inhibition of human p38 MAPK; type: protein assay
[6] = target: Mitogen-activated protein kinase 8 (Homo sapiens, UniProt P45983); test: Inhibition of human JNK1
[7] = target: Mitogen-activated protein kinase 9 (Homo sapiens, UniProt P45984); test: Inhibition of human JNK2
Sequence of Mitogen-activated protein kinase 9 (P45984 whole entry): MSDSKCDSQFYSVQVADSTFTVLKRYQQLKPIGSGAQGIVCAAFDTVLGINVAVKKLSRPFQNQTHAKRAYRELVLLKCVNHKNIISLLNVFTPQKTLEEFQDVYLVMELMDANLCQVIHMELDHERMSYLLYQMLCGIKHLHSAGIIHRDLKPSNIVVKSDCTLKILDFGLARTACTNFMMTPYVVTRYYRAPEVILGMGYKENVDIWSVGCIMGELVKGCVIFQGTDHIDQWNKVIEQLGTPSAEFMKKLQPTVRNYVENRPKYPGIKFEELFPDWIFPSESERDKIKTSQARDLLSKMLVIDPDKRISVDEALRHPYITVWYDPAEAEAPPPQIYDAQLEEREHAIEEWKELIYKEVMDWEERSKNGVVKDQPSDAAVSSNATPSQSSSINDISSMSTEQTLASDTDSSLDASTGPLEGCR

Sequence of Mitogen-activated protein kinase 8 (P45983 whole entry): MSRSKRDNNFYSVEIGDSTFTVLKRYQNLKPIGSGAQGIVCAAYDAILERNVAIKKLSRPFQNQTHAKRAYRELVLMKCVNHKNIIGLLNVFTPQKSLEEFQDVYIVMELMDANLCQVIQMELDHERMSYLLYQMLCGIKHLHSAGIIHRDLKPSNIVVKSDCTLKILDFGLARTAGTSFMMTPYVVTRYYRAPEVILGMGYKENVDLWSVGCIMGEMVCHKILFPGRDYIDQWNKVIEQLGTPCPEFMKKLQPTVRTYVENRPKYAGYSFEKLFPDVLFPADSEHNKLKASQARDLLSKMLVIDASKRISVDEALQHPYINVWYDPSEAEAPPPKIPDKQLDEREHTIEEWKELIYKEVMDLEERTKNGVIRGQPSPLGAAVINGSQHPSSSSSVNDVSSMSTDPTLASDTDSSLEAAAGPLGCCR
Sequence of Casein kinase I isoform alpha (P48729 whole entry, canonical isoform): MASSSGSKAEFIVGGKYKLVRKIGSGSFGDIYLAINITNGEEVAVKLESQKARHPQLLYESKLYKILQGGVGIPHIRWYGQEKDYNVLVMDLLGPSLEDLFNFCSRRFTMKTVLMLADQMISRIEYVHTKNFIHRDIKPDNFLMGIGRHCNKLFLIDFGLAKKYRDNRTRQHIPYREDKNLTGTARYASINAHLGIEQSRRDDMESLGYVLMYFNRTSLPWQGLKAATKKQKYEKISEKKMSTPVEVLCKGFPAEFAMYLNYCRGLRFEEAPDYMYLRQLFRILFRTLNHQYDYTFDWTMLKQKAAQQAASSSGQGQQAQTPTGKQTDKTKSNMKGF
Sequence of Casein kinase II subunit alpha (P68400 whole entry, canonical isoform): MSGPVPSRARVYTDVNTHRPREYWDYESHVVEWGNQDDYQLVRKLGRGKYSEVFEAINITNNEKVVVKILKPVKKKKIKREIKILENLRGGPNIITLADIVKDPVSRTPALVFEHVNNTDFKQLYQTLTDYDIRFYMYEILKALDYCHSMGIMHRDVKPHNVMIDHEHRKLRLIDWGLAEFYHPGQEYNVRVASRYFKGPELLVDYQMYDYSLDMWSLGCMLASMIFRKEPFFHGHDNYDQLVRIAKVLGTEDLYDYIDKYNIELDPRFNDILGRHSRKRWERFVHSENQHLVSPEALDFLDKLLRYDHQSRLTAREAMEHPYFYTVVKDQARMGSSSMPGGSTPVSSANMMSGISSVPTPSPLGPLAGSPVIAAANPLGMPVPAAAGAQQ
Sequence of Ribosomal protein S6 kinase alpha-3 (P51812 whole entry, canonical isoform): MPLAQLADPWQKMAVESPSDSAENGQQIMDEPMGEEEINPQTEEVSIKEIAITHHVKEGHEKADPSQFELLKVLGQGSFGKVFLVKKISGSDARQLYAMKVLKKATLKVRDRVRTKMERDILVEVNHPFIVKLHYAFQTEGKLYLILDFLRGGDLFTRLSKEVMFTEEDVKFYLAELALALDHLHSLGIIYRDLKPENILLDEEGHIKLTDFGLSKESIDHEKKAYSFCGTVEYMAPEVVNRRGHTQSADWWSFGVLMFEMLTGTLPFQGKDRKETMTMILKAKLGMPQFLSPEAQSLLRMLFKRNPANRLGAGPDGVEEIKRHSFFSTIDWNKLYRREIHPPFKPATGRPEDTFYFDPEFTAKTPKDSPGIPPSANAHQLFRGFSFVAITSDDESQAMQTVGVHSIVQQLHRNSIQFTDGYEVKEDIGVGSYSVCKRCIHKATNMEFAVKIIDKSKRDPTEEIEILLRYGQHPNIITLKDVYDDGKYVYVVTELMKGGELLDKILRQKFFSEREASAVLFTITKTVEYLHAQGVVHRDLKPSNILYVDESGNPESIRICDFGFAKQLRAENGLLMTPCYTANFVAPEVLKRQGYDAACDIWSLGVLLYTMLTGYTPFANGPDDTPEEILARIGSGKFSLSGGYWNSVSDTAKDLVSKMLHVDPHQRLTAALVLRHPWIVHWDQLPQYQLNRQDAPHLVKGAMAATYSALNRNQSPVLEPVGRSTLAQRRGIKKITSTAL
Sequence of Casein kinase I isoform delta (P48730 whole entry, canonical isoform): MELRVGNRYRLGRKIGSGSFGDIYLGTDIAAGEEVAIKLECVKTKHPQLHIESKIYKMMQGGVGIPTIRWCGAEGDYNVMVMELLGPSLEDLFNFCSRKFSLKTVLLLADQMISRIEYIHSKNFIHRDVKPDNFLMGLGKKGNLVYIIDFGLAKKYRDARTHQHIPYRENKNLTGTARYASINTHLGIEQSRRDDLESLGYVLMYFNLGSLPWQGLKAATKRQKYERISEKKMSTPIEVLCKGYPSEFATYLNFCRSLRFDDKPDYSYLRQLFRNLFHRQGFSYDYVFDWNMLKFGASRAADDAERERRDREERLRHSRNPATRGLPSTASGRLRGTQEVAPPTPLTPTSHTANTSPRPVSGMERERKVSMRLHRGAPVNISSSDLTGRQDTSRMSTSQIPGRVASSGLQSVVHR

Row | IC50 [1] [µM] | IC50 [2] [µM] | IC50 [3] [µM] | IC50 [4] [µM] | IC50 [5] [µM] | IC50 (MAP kinase p38) | IC50 [6] [µM] | IC50 [7] [µM] | Compound
1 | 76 | 1.4 | > 100 | 1.1 | 260 | <= 0.028 uM | 385 | 404 | CNc1nccc(-c2nc(C3CCNCC3)[nH]c2-c2cccc(C(F)(F)F)c2)n1
2 | 39 | 0.4 | > 100 | 1.3 | 2 | <= 0.024 uM | 175 | 166 | CC1CCC(c2nc(-c3ccc(F)cc3)c(-c3ccncc3)[nH]2)CC1 (stereo unspecified)
